These results are taken from patent publication US9555038B2, “Heterocycle-substituted tetracyclic compounds and methods of use thereof for the treatment of viral diseases” (Merck Sharp & Dohme Corp., priority 2013, dated 2017).

In general, IC50 refers to the concentration needed to halve the response being measured.

Read-outs that look alike come from different tables or passages of the source.

Test [1] deals with HCV replicon 1A. The test can be described thus: Cell-based HCV Replicon Assay A, replicon 1A. The essentials:
(§1)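 Three-day exposure of replicon cells (2000/well) to serially diluted compound, 0.5% DMSO, 5% serum. RNA per cell was derived as (Ct − intercept)/slope from replicon total RNA standards, with cyclophilin amplified in the same reaction.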
(Replicon systems follow genome replication, usually without infectious particles.)

In test [2] the test system is HCV replicon 1AY93H. The test can be described thus: Cell-based HCV Replicon Assay A, replicon 1AY93H. An outline of the steps:
as §1

The subject of test [3] is HCV replicon 2B. The test is described as follows: Cell-based HCV Replicon Assay A, replicon 2B. An outline of the steps: as §1
The test system of test [4] is HCV replicon 1AQ30D. The test is described as follows: Cell-based HCV Replicon Assay B, replicon 1AQ30D. The protocol: In an alternate assay (“Replicon Assay B”), 1000 cells were seeded per well in a 384-well collagen coated black plate from Greiner bio-one (Cat #781946) in 5% FBS. Inhibitors of this invention were added at 24 h post-seeding, and the plates were incubated for 3 days. Cells were subsequently lysed with Qiagen lysis buffer (Cat #1062731) to extract the RNA. HCV replicon RNA level was measured by real-time PCR using the RNA-to-CT kit from Applied Biosystem (Cat #4392656) and genotype-specific primers and probes. The amplicon was located within NS5B. The sequence of the PCR primers are as follows: 5B.2F, ATGGACAGGCGCCCTGA (SEQ. ID NO. 1); 5B.2R, […] (SEQ. ID NO. 2); the probe sequence was FAM-labeled CACGCCATGCGCTGCGG (SEQ. ID NO. 3). To detect genotype 1A the primer 1A F, TGCGGAACCGGTGAGTACA and 1A R, […] were used; the probe sequence was FAM-[…].
The real-time RT-PCR reactions were run on ABI PRISM 7900HT or Viia7 Sequence Detection System using the following program: 48° C. for 30 minutes, 95° C. for 10 minutes, 40 cycles of 95° C. for 15 sec, 60° C. for 1 minutes. The 50% effective concentration (EC50) was the drug concentration necessary to achieve an increase in the cycle threshold (CT) of 1 over the projected baseline CT.
Data was obtained for various compounds of the present invention using the methods described in the Example above, and is presented in the table immediately below. Data for replicons 1A, 1AY93H and 2B were obtained using Replicon Assay A and data for replicons 1AQ30D and 1B were obtained using Replicon Assay B.

The test system of test [5] is HCV replicon 1B. The test is described as follows: Cell-based HCV Replicon Assay B, replicon 1B. The essentials:
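EC50 defined as the drug concentration giving a CT increase of 1 above projected baseline, from real-time RT-PCR of replicon RNA using genotype-specific primers and probes. Cells were seeded in 5% FBS, dosed after 24 h and incubated 3 days before lysis.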

Setting [6] is: read-out: 1A Y93H IC50, replicon 1AY93H.
[7] abbreviates: read-out: 1A Q30D IC50, replicon 1AQ30D.
Setting [8] is: Hepatitis C virus, read-out: 1A Q30D IC50 (nM), replicon 1AQ30D.

Consider `COC(=O)N[C@H](C(=O)N1CCC[C@H]1c1ncc(-c2cc(F)c3c(c2)OC(c2ncc(-c4ccc(F)cc4)s2)n2c-3cc3cc(-c4cnc([C@@H]5CCCN5C(=O)[C@@H](NC(=O)OC)C(C)C)[nH]4)ccc32)[nH]1)C(C)C` (single isomer, unassigned) [Compound 34], for which the 50% inhibitory concentration (IC50) in test [1] was determined as 2.2 pM; in test [2] (setting [6]) it was 0.0331 nM; in test [3] (read-out: 2B IC50, replicon 2B), 0.022 nM; in test [4] (setting [7]), 0.144 nM; in test [5], 1 pM.
`CCc1ncc(C2Oc3cc(-c4cnc([C@@H]5CCCN5C(=O)[C@@H](NC(=O)OC)C(C)C)[nH]4)cc(F)c3-c3cc4cc(-c5cnc([C@@H]6CCCN6C(=O)C(NC(=O)OC)C6C[C@@H](C)O[C@@H](C)C6)[nH]5)ccc4n32)s1` (single isomer, unassigned) [Compound 36]: the IC50 stood at 2.5 pM in test [1]; 0.004 nM in test [2] (setting [6]); 0.005 nM in test [3] (read-out: 2B IC50, replicon 2B); 0.038 nM in test [4] (setting [8]); 3 pM in test [5] (Hepatitis C virus).
Consider `CCc1ncc(C2Oc3cc(-c4cnc([C@@H]5CCCN5C(=O)[C@@H](NC(=O)OC)C(C)C)[nH]4)cc(F)c3-c3cc4cc(-c5cnc([C@@H]6CCCN6C(=O)C(NC(=O)OC)C6CCOC(C)(C)C6)[nH]5)ccc4n32)s1` (single isomer, unassigned) [Compound 40], for which the IC50 in test [1] amounted to 3.5 pM; in test [2] (setting [6]) it was 0.0039 nM; in test [3] (read-out: 2B IC50, replicon 2B) it was 0.006 nM; in test [4] (setting [8]) it was 0.03 nM; in test [5] (Hepatitis C virus), 3 pM.
As to `COC(=O)N[C@H](C(=O)N1CCC[C@H]1c1ncc(-c2cc(F)c3c(c2)OC(c2cnc(C4CC4)s2)n2c-3c(F)c3cc(-c4cnc([C@@H]5CCCN5C(=O)[C@@H](NC(=O)OC)C5CCOCC5)[nH]4)ccc32)[nH]1)C(C)C` (single isomer, unassigned) [Compound 41], the 50% inhibitory concentration (IC50) in test [1] (Hepatitis C virus) came to 1.7 pM; in test [2] (setting [6]), 0.126 nM; in test [3] (read-out: 2B IC50, replicon 2B), 0.04 nM; in test [4] (setting [7]), 1.01 nM; in test [5] (Hepatitis C virus), 2 pM.
Turning to `COC(=O)N[C@H](C(=O)N1CCC[C@H]1c1ncc(-c2cc(F)c3c(c2)OC(c2cnc(C4CC4)s2)n2c-3c(F)c3cc(-c4cnc([C@@H]5CCCN5C(=O)[C@@H](NC(=O)OC)C5CCOCC5)[nH]4)ccc32)[nH]1)C(C)C` (single isomer, unassigned) [Compound 42], the IC50 in test [1] turned out to be 1.6 pM; in test [2] (setting [6]), 0.0141 nM; in test [3] (read-out: 2B IC50, replicon 2B), 0.017 nM; in test [4] (setting [7]) it was 0.123 nM; in test [5] it was 2 pM.
Regarding `COC(=O)N[C@H](C(=O)N1CCC[C@H]1c1ncc(-c2cc(F)c3c(c2)OC(c2ncc(-c4ccc(C#N)cc4)s2)n2c-3cc3cc(-c4cnc([C@@H]5CCCN5C(=O)[C@@H](NC(=O)OC)C(C)C)[nH]4)ccc32)[nH]1)C(C)C` (single isomer, unassigned) [Compound 43], the IC50 in test [1] (Hepatitis C virus) was found to be 2.3 pM; in test [2] (setting [6]) it was 0.0081 nM; in test [3] (read-out: 2B IC50, replicon 2B) it was 0.004 nM; in test [4] (setting [7]), 0.077 nM; in test [5] (Hepatitis C virus), 2 pM.
Take `COC(=O)N[C@H](C(=O)N1CCC[C@H]1c1ncc(-c2cc(F)c3c(c2)OC(c2cnc(-c4ccc(OC)cc4)s2)n2c-3cc3cc(-c4cnc([C@@H]5CCCN5C(=O)[C@@H](NC(=O)OC)C(C)C)[nH]4)ccc32)[nH]1)C(C)C` (single isomer, unassigned) [Compound 45]: the IC50 in test [1] (Hepatitis C virus) was found to be 1.8 pM; in test [2] (setting [6]) it was 0.006 nM; in test [3] (read-out: 2B IC50, replicon 2B), 0.011 nM; in test [4] (setting [8]) it was 0.072 nM; in test [5] (Hepatitis C virus), 1 pM.
For `COC(=O)N[C@H](C(=O)N1CCC[C@H]1c1ncc(-c2cc(C)c3c(c2)OC(c2ncc(C4CC4)s2)n2c-3cc3cc(-c4cnc([C@@H]5CCCN5C(=O)[C@@H](NC(=O)OC)C5C[C@@H](C)O[C@@H](C)C5)[nH]4)ccc32)[nH]1)C(C)C` (single isomer, unassigned) [Compound 47], the IC50 in test [1] (Hepatitis C virus) was determined as 2 pM; in test [2] (setting [6]), 1.12 nM; in test [3] (read-out: 2B IC50, replicon 2B), 0.058 nM; in test [4] (setting [7]), 2.19 nM; in test [5] (Hepatitis C virus), 3 pM.
Regarding `COC(=O)N[C@H](C(=O)N1CCC[C@H]1c1ncc(-c2cc(C)c3c(c2)OC(c2ncc(C4CC4)s2)n2c-3cc3cc(-c4cnc([C@@H]5CCCN5C(=O)[C@@H](NC(=O)OC)C5C[C@@H](C)O[C@@H](C)C5)[nH]4)ccc32)[nH]1)C(C)C` (single isomer, unassigned) [Compound 48], the 50% inhibitory concentration (IC50) in test [1] worked out at 1.5 pM; in test [2] (setting [6]), 0.0538 nM; in test [3] (read-out: 2B IC50, replicon 2B) it was 0.016 nM; in test [4] (setting [7]), 0.31 nM; in test [5], 2 pM.
As for `COC(=O)NC(C(=O)N1CCC[C@H]1c1ncc(-c2ccc3c(c2)cc2n3C(c3ncc(C4CC4)s3)Oc3cc(-c4cnc([C@@H]5CCCN5C(=O)[C@@H](NC(=O)OC)C(C)C)[nH]4)cc(F)c3-2)[nH]1)C1C[C@@H](C)O[C@@H](C)C1` (single isomer, unassigned) [Compound 51], the IC50 in test [1] (Hepatitis C virus) came to 2.2 pM; in test [2] (Hepatitis C virus, read-out: 1A Y93H IC50 (nM), replicon 1AY93H) it was 0.0223 nM; in test [3] (Hepatitis C virus, read-out: 2B IC50 (nM), replicon 2B) it was 0.025 nM; in test [4] (setting [8]), 0.152 nM; in test [5] (Hepatitis C virus), 3 pM.
On to `COC(=O)N[C@H](C(=O)N1CCC[C@H]1c1ncc(-c2cc(F)c3c(c2)OC(c2cnc(-c4ccc(Cl)cc4)s2)n2c-3cc3cc(-c4cnc([C@@H]5CCCN5C(=O)[C@@H](NC(=O)OC)C(C)C)[nH]4)ccc32)[nH]1)C(C)C` (single isomer, unassigned) [Compound 53], for which the IC50 in test [1] (Hepatitis C virus) worked out at 1.6 pM; in test [2] (setting [6]) it was 0.0022 nM; in test [3] (read-out: 2B IC50, replicon 2B), 0.004 nM; in test [4] (setting [8]), 0.07 nM; in test [5] (Hepatitis C virus) it was 1 pM.
As for `COC(=O)NC(C(=O)N1CCC[C@H]1c1ncc(-c2ccc3c(c2)cc2n3C(c3cnc(C(C)C)s3)Oc3cc(-c4cnc([C@@H]5CCCN5C(=O)[C@@H](NC(=O)OC)C(C)C)[nH]4)cc(F)c3-2)[nH]1)C1C[C@@H](C)O[C@@H](C)C1` (single isomer, unassigned) [Compound 57], the IC50 in test [1] came out at 1.6 pM; in test [2] (setting [6]) it was 0.002 nM; in test [3] (read-out: 2B IC50, replicon 2B), 0.005 nM; in test [4] (setting [8]) it was 0.028 nM; in test [5] (Hepatitis C virus), 1 pM.
With `CCCc1ncc(C2Oc3cc(-c4cnc([C@@H]5CCCN5C(=O)[C@@H](NC(=O)OC)C(C)C)[nH]4)cc(F)c3-c3cc4cc(-c5cnc([C@@H]6CCCN6C(=O)C(NC(=O)OC)C6CCOC(C)(C)C6)[nH]5)ccc4n32)s1` (single isomer, unassigned) [Compound 59], the IC50 was determined as 2.6 pM in test [1]; 0.132 nM in test [2] (setting [6]); 0.133 nM in test [3] (read-out: 2B IC50, replicon 2B); 0.762 nM in test [4] (setting [7]); 3 pM in test [5].
`CCCc1ncc(C2Oc3cc(-c4cnc([C@@H]5CCCN5C(=O)[C@@H](NC(=O)OC)C(C)C)[nH]4)cc(F)c3-c3cc4cc(-c5cnc([C@@H]6CCCN6C(=O)C(NC(=O)OC)C6CCOC(C)(C)C6)[nH]5)ccc4n32)s1` (single isomer, unassigned) [Compound 61]: the IC50 in test [1] turned out to be 3.3 pM; in test [2] (setting [6]), 0.012 nM; in test [3] (read-out: 2B IC50, replicon 2B), 0.006 nM; in test [4] (setting [7]), 0.07 nM; in test [5], 1.7 pM.
As for `COC(=O)NC(C(=O)N1[C@@H]2C[C@@H]2C[C@H]1c1ncc(-c2ccc3c(c2)cc2n3C(c3ncc(C4CC4)s3)Oc3cc(-c4cnc([C@@H]5CCCN5C(=O)[C@@H](NC(=O)OC)C(C)C)[nH]4)cc(F)c3-2)[nH]1)C1C[C@@H](C)O[C@@H](C)C1` (single isomer, unassigned) [Compound 65], the IC50 is 2.1 pM in test [1]; 0.0081 nM in test [2] (setting [6]); 0.044 nM in test [3] (read-out: 2B IC50, replicon 2B); 0.095 nM in test [4] (setting [8]); 3 pM in test [5] (Hepatitis C virus).
